Source: US20050256003A1, “Novel herbicides” (priority 2002, published 2005)

Tested on: selected test plants
Experiment: Post-emergence action in a different test arrangement (Table B3)
Type: in vivo
Design: key to Post-emergence action (different test arrangement), Nasturtium / Post-emergence action (different test arrangement), Stellaria / Post-emergence action (different test arrangement), Solanum: 10=total damage; 0=no action; Ratings of from 10 to 7 (especially from 10 to 8) indicate good to very good herbicidal action
Settings: 250 g a.i./ha

| SMILES | Post-emergence action (different test arrangement), Amaranthus | Post-emergence action (different test arrangement), Nasturtium | Post-emergence action (different test arrangement), Solanum | Post-emergence action (different test arrangement), Stellaria |
| --- | --- | --- | --- | --- |
| O=C1CCCC(O)=C1C(=O)c1ccc(C(F)(F)F)nc1CN1CN(c2ccc(Cl)cc2)CC1=O [Compound A1.237] | 9 | 9 | 10 | 7 |
| O=C1CCCC(O)=C1C(=O)c1ccc(C(F)(F)F)nc1COCCN1CCCC1=O [Compound A1.220] | 9 | 10 | 9 | 10 |
| CN1CCN(Cc2nc(C(F)(F)F)ccc2C(=O)C2=C(O)CCCC2=O)C1=O [Compound A1.213] | 9 | 9 | 9 | 9 |
| O=C1CCCC(O)=C1C(=O)c1ccc(C(F)(F)F)nc1CN1CCCC1=O [Compound A1.219] | 9 | 10 | 9 | 10 |
| O=C1CCCC(O)=C1C(=O)c1ccc(C(F)(F)F)nc1CN1CCC1=O [Compound A1.221] | 9 | 10 | 9 | 9 |
| CC1CCN(Cc2nc(C(F)(F)F)ccc2C(=O)C2=C(O)CCCC2=O)C1=O (centres unmarked) [Compound A1.222] | 9 | 10 | 9 | 9 |
| CN1CCN(Cc2nc(C(F)(F)F)ccc2C(=O)c2cnn(C)c2O)C1=O [Compound B1.211] | 9 | 10 | 9 | 8 |
| CC(C)N1CC(=O)N(Cc2nc(C(F)(F)F)ccc2C(=O)C2=C(O)CCCC2=O)C1=O [Compound A1.175] | 7 | 8 | 9 | 7 |
